Data from patent US9073881B2, “Benzoic acid derivatives” (HOFFMANN-LA ROCHE INC., priority 2011, dated 2015).

Target: Human eIF4E (Homo sapiens (Human), UniProt P06730)
Assay: Human eIF4E/4G binding assay (time-resolved fluorescence, HH-eIF4E and biotin-labeled 4G2 peptide)
Conditions: inhibition of binding of His-tagged human eIF4E (aa 28-217) to biotin-labeled 4G2 peptide
Description: The protein was solubilized with 8 M urea and purified under denaturing conditions using nickel-charged HisTrap HP columns (GE Healthcare). The protein was refolded by diluting to approximately 0.25 mg/mL with 6 M urea, 20 mM Hepes pH 7.0, 500 mM NaCl, 1 mM DTT, 1 mM EDTA, and 0.5 M arginine.HCl, and then dialyzing overnight into the same buffer without the urea. The protein was further dialyzed into 20 mM Hepes pH 6.5, 50 mM NaCl, 1 mM EDTA, and 1 mM DTT, filtered, and then concentrated using Hitrap SP sepharose FF columns (GE Healthcare). The protein was dialyzed into 20 mM Hepes pH 7.0, 500 mM NaCl, 5 mM DTT, and 10% glycerol and stored at −80° C. until use. Test compounds (1.6 mM stock in DMSO) were diluted 3 fold in series in DMSO. Compound solutions were diluted 4 fold in Assay Buffer (50 mM sodium phosphate, pH 6.5, 50 mM KCl, 1 mM DTT and 0.5 mg/mL gammaglobulin). […] The samples were incubated at room temperature for 20 minutes. […] IC50 values were calculated using Condoseo software (Genedata AG).

Sequence of Human eIF4E (P06730 28-217): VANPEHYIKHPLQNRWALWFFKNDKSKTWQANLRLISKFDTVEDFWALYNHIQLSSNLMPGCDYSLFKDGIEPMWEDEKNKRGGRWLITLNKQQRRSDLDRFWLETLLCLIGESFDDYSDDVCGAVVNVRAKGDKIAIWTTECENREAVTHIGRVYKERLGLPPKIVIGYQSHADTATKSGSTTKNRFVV

Structure (SMILES) | IC50 [µM]
O=C(O)c1cc(-c2nc(-c3ccc(Cl)c(Cl)c3)cs2)ccc1-c1cncc(Cl)c1 [Example 102, 2-(5-Chloro-pyridin-3-yl)-5-[4-(3,4-dichloro-phenyl)-thiazol-2-yl]-benzoic acid] | 5.4
O=C(NCCc1ccccc1)c1ccc(-c2ccc(-c3nc(-c4ccc(Cl)c(Cl)c4)cs3)cc2C(=O)O)cc1 [Example 67, 4-[4-(3,4-Dichloro-phenyl)-thiazol-2-yl]-4′-phenethylcarbamoyl-biphenyl-2-carboxylic acid] | 2.9
O=C(O)c1cc(-c2nc(-c3ccc(Cl)c(Cl)c3)cs2)ccc1-c1ccc(Cl)cc1Cl [Example 150, 2′,4′-Dichloro-4-[4-(3,4-dichloro-phenyl)-thiazol-2-yl]-biphenyl-2-carboxylic acid] | 1.4
O=C(O)c1cc(-c2nc(-c3ccc(Cl)c(Cl)c3)cs2)ccc1-c1cccc(Cl)c1Cl [Example 152, 2′,3′-Dichloro-4-[4-(3,4-dichloro-phenyl)-thiazol-2-yl]-biphenyl-2-carboxylic acid] | 2.1
O=C(O)c1cc(-c2nc(-c3ccc(Cl)c(Cl)c3)cs2)ccc1-c1ccc(F)cn1 [Example 100, 5-[4-(3,4-Dichloro-phenyl)-thiazol-2-yl]-2-(5-fluoro-pyridin-2-yl)-benzoic acid] | 3
CC(=O)N1CCC(NC(=O)c2ccc(-c3ccc(-c4nc(-c5ccc(Cl)c(Cl)c5)cs4)cc3C(=O)O)cc2)CC1 [Example 52, 4′-(1-Acetyl-piperidin-4-ylcarbamoyl)-4-[4-(3,4-dichloro-phenyl)-thiazol-2-yl]-biphenyl-2-carboxylic acid] | 10
CS(=O)(=O)c1ccc(-c2csc(-c3ccc(-c4ccccc4[N+](=O)[O-])c(C(=O)O)c3)n2)cc1 [Example 33, 4-[4-(4-Methanesulfonyl-phenyl)-thiazol-2-yl]-2′-nitro-biphenyl-2-carboxylic acid] | > 80
COc1cccc(-c2ccc(-c3nc(-c4ccc(Cl)c(Cl)c4)cs3)cc2C(=O)O)c1 [Example 91, 4-[4-(3,4-Dichloro-phenyl)-thiazol-2-yl]-3′-methoxy-biphenyl-2-carboxylic acid] | 5
COc1ncc(-c2ccc(-c3nc(-c4ccc(Cl)c(Cl)c4)cs3)cc2C(=O)O)cn1 [Example 83, 5-[4-(3,4-Dichloro-phenyl)-thiazol-2-yl]-2-(2-methoxy-pyrimidin-5-yl)-benzoic acid] | 14
O=C(O)c1cc(-c2nc(-c3ccc(Cl)c(Cl)c3)cs2)ccc1-c1ccc([N+](=O)[O-])cc1 [Example 45, 4-[4-(3,4-Dichloro-phenyl)-thiazol-2-yl]-4′-nitro-biphenyl-2-carboxylic acid] | 4.1
Cc1cc(C#N)ccc1-c1ccc(-c2nc(-c3ccc(Cl)c(Cl)c3)cs2)cc1C(=O)O [Example 105, 4′-Cyano-4-[4-(3,4-dichloro-phenyl)-thiazol-2-yl]-2′-methyl-biphenyl-2-carboxylic acid] | 1.3
O=C(O)c1cc(-c2nc(-c3ccc(F)c(Cl)c3)cs2)ccc1-c1ccccc1[N+](=O)[O-] [Example 18, 4-[4-(3-Chloro-4-fluoro-phenyl)-thiazol-2-yl]-2′-nitro-biphenyl-2-carboxylic acid] | 5
O=C(O)c1cc(-c2nc(-c3ccc(Cl)c(Cl)c3)cs2)ccc1-c1ccccc1[N+](=O)[O-] [Example 16, 4-[4-(3,4-Dichloro-phenyl)-thiazol-2-yl]-2′-nitro-biphenyl-2-carboxylic acid] | 0.5
O=C(O)c1cc(-c2nc(-c3cc(Cl)ccc3Cl)cs2)ccc1-c1ccccc1[N+](=O)[O-] [Example 12, 4-[4-(2,5-Dichloro-phenyl)-thiazol-2-yl]-2′-nitro-biphenyl-2-carboxylic acid] | 2.9
O=C(O)c1cc(-c2nc(-c3ccc(Cl)c(Cl)c3)cs2)ccc1-c1ccccc1Cl [Example 153, 2′-Chloro-4-[4-(3,4-dichloro-phenyl)-thiazol-2-yl]-biphenyl-2-carboxylic acid] | 2.2
Cc1ccc(F)c(-c2ccc(-c3nc(-c4ccc(Cl)c(Cl)c4)cs3)cc2C(=O)O)c1Cl [Example 139, 2′-Chloro-4-[4-(3,4-dichloro-phenyl)-thiazol-2-yl]-6′-fluoro-3′-methyl-biphenyl-2-carboxylic acid] | 1.6
O=C(O)c1ccc(-c2ccc(-c3nc(-c4ccc(Cl)c(Cl)c4)cs3)cc2C(=O)O)c(F)c1 [Example 121, 4-[4-(3,4-Dichloro-phenyl)-thiazol-2-yl]-2′-fluoro-biphenyl-2,4′-dicarboxylic acid] | 6.1
COc1cccc(CNC(=O)c2ccc(-c3ccc(-c4nc(-c5ccc(Cl)c(Cl)c5)cs4)cc3C(=O)O)cc2)c1 [Example 65, 4-[4-(3,4-Dichloro-phenyl)-thiazol-2-yl]-4′-(3-methoxy-benzylcarbamoyl)-biphenyl-2-carboxylic acid] | 1.3
O=C(O)c1cc(-c2nc(-c3ccc(Cl)c(Cl)c3)cs2)ccc1-c1ccc(C(F)(F)F)cc1Cl [Example 127, 2′-Chloro-4-[4-(3,4-dichloro-phenyl)-thiazol-2-yl]-4′-trifluoromethyl-biphenyl-2-carboxylic acid] | 1.6
O=C(NCc1cccc(F)c1)c1ccc(-c2ccc(-c3nc(-c4ccc(Cl)c(Cl)c4)cs3)cc2C(=O)O)cc1 [Example 73, 4-[4-(3,4-Dichloro-phenyl)-thiazol-2-yl]-4′-(3-fluoro-benzylcarbamoyl)-biphenyl-2-carboxylic acid] | 2.1
O=C(NC1CCOC1)c1ccc(-c2ccc(-c3nc(-c4ccc(Cl)c(Cl)c4)cs3)cc2C(=O)O)cc1 (stereo not drawn) [Example 62, 4-[4-(3,4-Dichloro-phenyl)-thiazol-2-yl]-4′-(tetrahydro-furan-3-ylcarbamoyl)-biphenyl-2-carboxylic acid] | 7.7
O=C(NCc1ccc(F)cc1)c1ccc(-c2ccc(-c3nc(-c4ccc(Cl)c(Cl)c4)cs3)cc2C(=O)O)cc1 [Example 72, 4-[4-(3,4-Dichloro-phenyl)-thiazol-2-yl]-4′-(4-fluoro-benzylcarbamoyl)-biphenyl-2-carboxylic acid] | 1.5
Cc1ncccc1-c1ccc(-c2nc(-c3ccc(Cl)c(Cl)c3)cs2)cc1C(=O)O [Example 98, 5-[4-(3,4-Dichloro-phenyl)-thiazol-2-yl]-2-(2-methyl-pyridin-3-yl)-benzoic acid] | 4
Cc1cc(C(=O)O)ccc1-c1ccc(-c2nc(-c3ccc(Cl)c(Cl)c3)cs2)cc1C(=O)O [Example 79, 4-[4-(3,4-Dichloro-phenyl)-thiazol-2-yl]-2′-methyl-biphenyl-2,4′-dicarboxylic acid] | 5.4
O=C(O)c1cc(-c2nc(-c3cccc(Br)c3)cs2)ccc1-c1ccccc1[N+](=O)[O-] [Example 26, 4-[4-(3-Bromo-phenyl)-thiazol-2-yl]-2′-nitro-biphenyl-2-carboxylic acid] | 3
O=C(O)c1cc(-c2nc(-c3ccc(Cl)c(Cl)c3)cs2)ccc1-c1ccc(F)cc1Cl [Example 134, 2′-Chloro-4-[4-(3,4-dichloro-phenyl)-thiazol-2-yl]-4′-fluoro-biphenyl-2-carboxylic acid] | 1.4
Cc1cccc(CNC(=O)c2ccc(-c3ccc(-c4nc(-c5ccc(Cl)c(Cl)c5)cs4)cc3C(=O)O)cc2)c1 [Example 70, 4-[4-(3,4-Dichloro-phenyl)-thiazol-2-yl]-4′-(3-methyl-benzylcarbamoyl)-biphenyl-2-carboxylic acid] | 1.7
